Among the data in ChEMBL document CHEMBL5678804 (Cancer Cell, 2011) are Activity and IC50 values, retold here.

In experiment [1] the test system is BaF3. The experiment is described as follows: Antileukemic activity against mouse BaF3 cells harbouring BCR-ABL1 T315I mutant non-transduced with 5-FU treated bone marrow xenografted in Balb/c mouse assessed as alteration in B-lymphoid leukemia at 60 mg/kg, po administered twice daily. It counts as functional, organism-based.
Experiment [2] deals with Mitogen-activated protein kinase kinase kinase 20 (Homo sapiens, UniProt Q9NYL2). The experiment is described as follows: Inhibition of human wild type ZAK using MBP as substrate preincubated for 2 hrs followed by ATP addition and measured every 2 mins for […] by spectrophotometric analysis.
Experiment [3] has as its target Serine/threonine-protein kinase A-Raf (Homo sapiens, UniProt P10398). The experiment is described as follows: Inhibition of human ARAF preincubated for 2 hrs followed by ATP addition and measured every 2 mins for […] by spectrophotometric analysis.
Experiment [4] has as its target Vascular endothelial growth factor receptor 1 (Homo sapiens, UniProt P17948). The experiment is described as follows: Inhibition of human wild type FLT1 using PolyEY as substrate preincubated for 2 hrs followed by ATP addition and measured every 2 mins for […] by spectrophotometric analysis.
In experiment [5] the target is Mitogen-activated protein kinase 9 (Homo sapiens, UniProt P45984). The experiment is described as follows: Inhibition of human wild type JNK2alpha2 using ATF2 as substrate preincubated for 2 hrs followed by ATP addition and measured every 2 mins for […] by spectrophotometric analysis.
Experiment [6] has as its target Tyrosine-protein kinase Srms (Homo sapiens, UniProt Q9H3Y6). The experiment is described as follows: Inhibition of human wild type SRMS using PolyEY as substrate preincubated for 2 hrs followed by ATP addition and measured every 2 mins for […] by spectrophotometric analysis.
For experiment [7], the target named is Dual specificity protein kinase TTK (Homo sapiens, UniProt P33981). The experiment is described as follows: Inhibition of human wild type TTK using RBER-CHKtide as substrate preincubated for 2 hrs followed by ATP addition and measured every 2 mins for […] by spectrophotometric analysis.
For experiment [8], the target named is Aurora kinase B (Homo sapiens, UniProt Q96GD4). The experiment is described as follows: Inhibition of human wild type AuroraB using bio-4xCHKT as substrate preincubated for 2 hrs followed by ATP addition and measured every 2 mins for […] by spectrophotometric analysis.
For experiment [9], the target named is Ephrin type-B receptor 3 (Homo sapiens, UniProt P54753). The experiment is described as follows: Inhibition of human wild type EPHB3 using PolyEY as substrate preincubated for 2 hrs followed by ATP addition and measured every 2 mins for […] by spectrophotometric analysis.
Sequence of Ephrin type-B receptor 3 (P54753 whole entry): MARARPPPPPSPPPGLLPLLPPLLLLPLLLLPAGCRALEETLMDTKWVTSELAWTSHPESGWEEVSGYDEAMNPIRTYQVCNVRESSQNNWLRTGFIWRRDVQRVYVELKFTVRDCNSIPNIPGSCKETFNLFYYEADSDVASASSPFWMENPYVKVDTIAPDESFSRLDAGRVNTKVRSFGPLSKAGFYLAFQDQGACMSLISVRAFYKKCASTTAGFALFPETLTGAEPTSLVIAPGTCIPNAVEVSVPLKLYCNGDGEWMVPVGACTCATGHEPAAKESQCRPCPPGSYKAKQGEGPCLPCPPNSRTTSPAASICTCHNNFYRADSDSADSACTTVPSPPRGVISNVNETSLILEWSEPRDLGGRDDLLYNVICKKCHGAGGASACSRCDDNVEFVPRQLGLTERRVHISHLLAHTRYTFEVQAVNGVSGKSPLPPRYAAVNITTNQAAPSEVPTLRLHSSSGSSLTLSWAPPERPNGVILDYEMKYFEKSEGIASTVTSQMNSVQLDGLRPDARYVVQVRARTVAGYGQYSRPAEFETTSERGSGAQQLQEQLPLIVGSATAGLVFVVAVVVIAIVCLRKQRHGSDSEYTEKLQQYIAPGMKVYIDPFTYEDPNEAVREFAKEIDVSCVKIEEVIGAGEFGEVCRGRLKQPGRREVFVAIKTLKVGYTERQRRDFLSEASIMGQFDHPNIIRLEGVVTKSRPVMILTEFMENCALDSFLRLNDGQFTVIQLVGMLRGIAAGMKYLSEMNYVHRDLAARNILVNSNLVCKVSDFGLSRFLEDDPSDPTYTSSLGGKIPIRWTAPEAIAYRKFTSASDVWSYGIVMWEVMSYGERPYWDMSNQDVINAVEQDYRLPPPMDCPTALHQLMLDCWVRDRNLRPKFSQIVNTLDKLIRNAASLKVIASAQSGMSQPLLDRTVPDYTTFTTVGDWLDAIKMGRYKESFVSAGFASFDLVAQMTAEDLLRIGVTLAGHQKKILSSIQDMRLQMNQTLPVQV
For experiment [10], the target named is Beta-adrenergic receptor kinase 1 (Homo sapiens, UniProt P25098). The experiment is described as follows: Inhibition of human wild type GRK2 using Casein as substrate preincubated for 2 hrs followed by ATP addition and measured every 2 mins for […] by spectrophotometric analysis.
The target of experiment [11] is Serine/threonine-protein kinase STK11 (Homo sapiens, UniProt Q15831). The experiment is described as follows: Inhibition of human wild type LKB1 using RB-CTF as substrate preincubated for 2 hrs followed by ATP addition and measured every 2 mins for […] by spectrophotometric analysis.
Experiment [12] has as its target Serine/threonine-protein kinase MARK1 (Homo sapiens, UniProt Q9P0L2). The experiment is described as follows: Inhibition of human wild type MARK1 using RBER-CHKtide as substrate preincubated for 2 hrs followed by ATP addition and measured every 2 mins for […] by spectrophotometric analysis.
The target in experiment [13] is Serine/threonine-protein kinase pim-2 (Homo sapiens, UniProt Q9P1W9). The experiment is described as follows: Inhibition of human wild type PIM2 using RBER-GSK3(14to 27) as substrate preincubated for 2 hrs followed by ATP addition and measured every 2 mins for […] by spectrophotometric analysis.
Experiment [14] addresses Protein kinase C gamma type (Homo sapiens, UniProt P05129). The experiment is described as follows: Inhibition of human wild type PKC gamma using 3xChocktide-PKC(19to 31) as substrate preincubated for 2 hrs followed by ATP addition and measured every 2 mins for […] by spectrophotometric analysis.
In experiment [15] the target is Serine/threonine-protein kinase N1 (Homo sapiens, UniProt Q16512). The experiment is described as follows: Inhibition of human wild type PKN1 using RBER-CHKtide as substrate preincubated for 2 hrs followed by ATP addition and measured every 2 mins for […] by spectrophotometric analysis.
Experiment [16] concerns the target cAMP-dependent protein kinase catalytic subunit PRKX (Homo sapiens, UniProt P51817). The experiment is described as follows: Inhibition of human wild type PRKX using RBER-GSK3([…] to […]) as substrate preincubated for 2 hrs followed by ATP addition and measured every 2 mins for […] by spectrophotometric analysis.
For experiment [17], the target named is Ribosomal protein S6 kinase alpha-6 (Homo sapiens, UniProt Q9UK32). The experiment is described as follows: Inhibition of human wild type RSK4 using RBER-GSK3([…] to […]) as substrate preincubated for 2 hrs followed by ATP addition and measured every 2 mins for […] by spectrophotometric analysis.
Sequence of Ribosomal protein S6 kinase alpha-6 (Q9UK32 whole entry): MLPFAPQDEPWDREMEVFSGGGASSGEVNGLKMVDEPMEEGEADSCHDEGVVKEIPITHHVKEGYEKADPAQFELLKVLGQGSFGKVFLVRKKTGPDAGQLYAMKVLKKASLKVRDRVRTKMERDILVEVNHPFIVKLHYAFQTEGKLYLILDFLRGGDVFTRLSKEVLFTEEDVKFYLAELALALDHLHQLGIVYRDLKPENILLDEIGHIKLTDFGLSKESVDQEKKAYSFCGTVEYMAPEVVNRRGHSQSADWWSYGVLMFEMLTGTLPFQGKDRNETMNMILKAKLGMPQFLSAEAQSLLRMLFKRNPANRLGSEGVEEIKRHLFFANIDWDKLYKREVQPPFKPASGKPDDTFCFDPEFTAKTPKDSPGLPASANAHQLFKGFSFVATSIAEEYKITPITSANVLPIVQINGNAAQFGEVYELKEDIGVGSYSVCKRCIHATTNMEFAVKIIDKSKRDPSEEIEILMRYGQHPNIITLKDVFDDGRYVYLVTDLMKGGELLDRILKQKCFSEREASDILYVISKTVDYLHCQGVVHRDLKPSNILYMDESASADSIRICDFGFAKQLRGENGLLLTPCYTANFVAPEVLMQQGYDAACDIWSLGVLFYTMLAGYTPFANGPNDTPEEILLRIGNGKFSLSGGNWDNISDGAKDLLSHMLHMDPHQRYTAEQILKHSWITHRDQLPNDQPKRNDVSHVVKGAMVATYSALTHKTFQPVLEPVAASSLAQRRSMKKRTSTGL
For experiment [18], the target named is Serine/threonine-protein kinase 25 (Homo sapiens, UniProt O00506). The experiment is described as follows: Inhibition of human wild type STK25 using Casein as substrate preincubated for 2 hrs followed by ATP addition and measured every 2 mins for […] by spectrophotometric analysis.
Sequence of Serine/threonine-protein kinase 25 (O00506 whole entry): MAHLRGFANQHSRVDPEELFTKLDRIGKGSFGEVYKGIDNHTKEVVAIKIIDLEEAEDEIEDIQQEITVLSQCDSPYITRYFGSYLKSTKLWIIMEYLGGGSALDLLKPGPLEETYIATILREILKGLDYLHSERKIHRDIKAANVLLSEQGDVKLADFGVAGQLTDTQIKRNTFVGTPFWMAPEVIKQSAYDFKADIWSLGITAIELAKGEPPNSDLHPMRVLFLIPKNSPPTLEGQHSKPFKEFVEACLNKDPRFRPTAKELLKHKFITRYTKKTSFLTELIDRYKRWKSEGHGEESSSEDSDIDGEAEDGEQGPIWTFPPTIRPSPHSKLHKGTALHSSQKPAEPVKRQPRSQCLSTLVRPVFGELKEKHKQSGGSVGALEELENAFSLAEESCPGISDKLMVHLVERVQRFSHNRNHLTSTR

Calls of active or inactive are those of the source. The rule behind the calls is not given here.

Sequence of Vascular endothelial growth factor receptor 1 (P17948 whole entry): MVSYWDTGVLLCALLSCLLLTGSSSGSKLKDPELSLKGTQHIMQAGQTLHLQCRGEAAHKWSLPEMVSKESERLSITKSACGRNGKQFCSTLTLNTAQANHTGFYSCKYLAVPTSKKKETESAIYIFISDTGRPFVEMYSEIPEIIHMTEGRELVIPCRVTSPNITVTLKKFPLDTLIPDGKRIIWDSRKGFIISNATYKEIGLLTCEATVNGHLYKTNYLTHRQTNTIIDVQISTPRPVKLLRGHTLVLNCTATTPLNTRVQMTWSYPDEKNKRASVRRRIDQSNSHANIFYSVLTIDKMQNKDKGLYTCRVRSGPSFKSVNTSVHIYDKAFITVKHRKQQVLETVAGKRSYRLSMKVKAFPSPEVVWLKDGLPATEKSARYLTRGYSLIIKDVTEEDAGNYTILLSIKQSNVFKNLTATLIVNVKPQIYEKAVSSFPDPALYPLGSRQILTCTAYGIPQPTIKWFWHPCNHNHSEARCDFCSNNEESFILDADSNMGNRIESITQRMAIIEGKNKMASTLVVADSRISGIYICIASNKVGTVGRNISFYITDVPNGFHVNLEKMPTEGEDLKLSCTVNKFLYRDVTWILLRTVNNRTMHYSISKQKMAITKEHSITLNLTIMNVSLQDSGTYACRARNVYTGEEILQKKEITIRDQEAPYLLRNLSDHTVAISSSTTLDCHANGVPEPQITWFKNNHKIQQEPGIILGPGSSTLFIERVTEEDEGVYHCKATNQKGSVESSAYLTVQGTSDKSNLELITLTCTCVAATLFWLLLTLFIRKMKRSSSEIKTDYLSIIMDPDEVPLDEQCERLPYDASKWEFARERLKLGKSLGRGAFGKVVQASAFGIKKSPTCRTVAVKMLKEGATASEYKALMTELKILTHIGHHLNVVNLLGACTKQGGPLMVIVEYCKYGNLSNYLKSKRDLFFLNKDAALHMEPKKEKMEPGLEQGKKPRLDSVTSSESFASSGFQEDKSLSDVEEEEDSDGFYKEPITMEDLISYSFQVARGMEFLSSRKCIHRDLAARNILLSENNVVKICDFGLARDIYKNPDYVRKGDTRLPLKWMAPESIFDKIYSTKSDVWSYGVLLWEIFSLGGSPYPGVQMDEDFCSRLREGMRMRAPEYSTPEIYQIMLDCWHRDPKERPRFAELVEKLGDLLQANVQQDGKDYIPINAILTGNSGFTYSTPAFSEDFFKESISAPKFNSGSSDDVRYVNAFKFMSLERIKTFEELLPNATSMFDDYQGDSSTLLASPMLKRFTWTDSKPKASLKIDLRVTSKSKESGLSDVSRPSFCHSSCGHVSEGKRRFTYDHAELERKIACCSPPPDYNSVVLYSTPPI
Sequence of Tyrosine-protein kinase Srms (Q9H3Y6 whole entry): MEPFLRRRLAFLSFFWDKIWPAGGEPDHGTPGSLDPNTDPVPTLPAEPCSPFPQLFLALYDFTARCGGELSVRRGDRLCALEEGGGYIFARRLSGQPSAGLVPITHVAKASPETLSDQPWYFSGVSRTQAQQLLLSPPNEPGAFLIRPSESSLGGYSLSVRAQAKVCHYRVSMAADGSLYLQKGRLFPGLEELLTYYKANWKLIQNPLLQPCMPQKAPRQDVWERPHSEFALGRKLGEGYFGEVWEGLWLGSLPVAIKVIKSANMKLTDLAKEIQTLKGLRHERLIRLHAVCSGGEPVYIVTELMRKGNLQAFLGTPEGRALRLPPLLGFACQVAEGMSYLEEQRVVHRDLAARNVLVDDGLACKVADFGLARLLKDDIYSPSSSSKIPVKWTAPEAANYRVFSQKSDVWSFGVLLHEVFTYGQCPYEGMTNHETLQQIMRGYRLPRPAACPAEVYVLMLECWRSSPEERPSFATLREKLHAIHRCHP
Sequence of Serine/threonine-protein kinase A-Raf (P10398 whole entry): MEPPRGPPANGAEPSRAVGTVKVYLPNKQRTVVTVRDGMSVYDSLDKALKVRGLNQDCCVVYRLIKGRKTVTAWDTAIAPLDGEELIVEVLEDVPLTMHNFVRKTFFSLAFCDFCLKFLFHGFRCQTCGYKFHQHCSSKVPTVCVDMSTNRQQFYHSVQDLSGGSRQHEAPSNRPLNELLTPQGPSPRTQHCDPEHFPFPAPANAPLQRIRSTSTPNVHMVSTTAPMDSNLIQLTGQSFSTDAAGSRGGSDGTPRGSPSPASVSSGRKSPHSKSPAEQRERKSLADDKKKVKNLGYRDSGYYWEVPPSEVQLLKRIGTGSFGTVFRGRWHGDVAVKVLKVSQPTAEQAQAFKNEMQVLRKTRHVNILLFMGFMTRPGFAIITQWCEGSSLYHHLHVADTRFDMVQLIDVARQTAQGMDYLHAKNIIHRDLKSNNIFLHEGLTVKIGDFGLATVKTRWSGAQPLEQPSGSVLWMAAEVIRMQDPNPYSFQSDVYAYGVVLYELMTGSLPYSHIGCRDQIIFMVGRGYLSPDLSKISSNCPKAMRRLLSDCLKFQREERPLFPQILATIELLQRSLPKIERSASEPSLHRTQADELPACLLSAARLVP
Sequence of cAMP-dependent protein kinase catalytic subunit PRKX (P51817 whole entry): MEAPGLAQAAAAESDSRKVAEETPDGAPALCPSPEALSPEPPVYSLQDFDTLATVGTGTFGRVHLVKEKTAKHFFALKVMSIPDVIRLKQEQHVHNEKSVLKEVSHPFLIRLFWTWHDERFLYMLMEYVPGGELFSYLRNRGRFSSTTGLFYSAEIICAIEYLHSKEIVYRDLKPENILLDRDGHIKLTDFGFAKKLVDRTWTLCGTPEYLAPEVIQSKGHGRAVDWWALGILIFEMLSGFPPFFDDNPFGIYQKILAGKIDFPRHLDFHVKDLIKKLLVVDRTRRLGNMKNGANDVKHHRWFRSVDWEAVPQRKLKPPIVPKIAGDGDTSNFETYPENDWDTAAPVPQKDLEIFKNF

For the compound `CNC(=O)c1cc(Oc2ccc(NC(=O)Nc3cc(C(C)(C)C)nn3-c3ccc4ncccc4c3)c(F)c2)ccn1` [REBASTINIB], the result in experiment [1] was Active. The IC50 (as a rule, the midpoint of a concentration-inhibition curve) in experiment [2] came out at 90 nM; in [3], 230 nM; in experiment [4], 320 nM; in experiment [5], 240 nM; in [6] it was 370 nM; in [7] it was 290 nM. The IC50 in experiment [8], in [9], in experiment [10], in experiment [11], in experiment [12] and in experiment [13] was above 1000 nM each time. The IC50 in experiment [14], in experiment [15], in experiment [16], in [17] and in experiment [18] was above 1000 nM each time.
